Assay results from EP1680415B1, “PYRROLIDINYL UREA DERIVATIVES AS ANGIOGENESIS INHIBITORS” (ABBOTT LABORATORIES, priority 2003, dated 2005).

Tested on: HMVEC
Assay: human microvascular endothelial (HMVEC) migration assay
Type: cell-based
Details: Inhibition of HMVEC migration, activators 15 ng/mL bFGF/VEGF, 4 hours at 37 °C, compared to a positive control
Summary of the method: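 Dermal (single-donor) and neonatal microvascular endothelial cells, serum-starved overnight in DME/0.01% BSA, attached 2 h at 37 °C to gelatin-coated 5 µm membranes in a modified Boyden chamber. Test substances with 15 ng/mL bFGF/VEGF added; migration over 4 h at 37 °C. Stained migrated cells counted per high-power field, background subtracted, or given as % inhibition versus positive control.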

COCC1CCCN(C(=O)N[C@@H]2CCN(C(=O)c3ccc(C)nc3)C2)C1 (stereo partly drawn) [Example 97, 3-(methoxymethyl)-N-{(3R)-1-[(6-methylpyridin-3-yl)carbonyl]pyrrolidin-3-yl}piperidine-1-carboxamide]
inhibition at 10 pM (Homo sapiens, 0.01 nM): 54%

N-{(3R)-1-[(2-chloro-6-methylpyridin-3-yl)carbonyl]pyrrolidin-3-yl}-1,3,3-trimethyl-6-azabicyclo[3.2.1]octane-6-carboxamide [Example 36]
% Inhibition @ 1 nM (1 nM): 64%

N-{(3R)-1-[(6-methyl-3-pyridinyl)carbonyl]-3-pyrrolidinyl}-N'-[2-(2-thienyl)ethyl]urea [Example 28]
% Inhibition @ 0.1 nM (0.1 nM): 86%
